Data set [1] in a line: Cytotoxicity against human MCF10A cells at => IC50 of wound healing assay after 24 hrs by MTT assay. The settings on record: mcf-10a. (Tetrazolium assays rely on reduction of a dye to a coloured formazan, in cell work by metabolically active cells.)
The test system of data set [2] is MDA-MB-231. As to the kind of experiment: Antimigratory activity in human MDA-MB-231 cells after 24 hrs by wound healing assay. The settings on record: MDA-MB-231, 24 h.
Data set [3] can be described thus: Cytotoxicity against human MCF10A cells at => IC50 of antiproliferative assay after 24 hrs by MTT assay. The settings on record: mcf-10a.
The test system of the next data set is MCF7. As to the kind of experiment: cells. The settings on record: Homo sapiens, MCF7, 72 h.
Data set [4] relates to MDA-MB-231. As to the kind of experiment: Antiproliferative activity against human MDA-MB-231 cells after 72 hrs by MTT assay. The settings on record: MDA-MB-231, 72 h.
Data set [5] deals with Protein-tyrosine kinase 6 (Homo sapiens) (UniProt Q13882). Put plainly: Inhibition of PTK6 phosphorylation in human MDA-MB-231 cells at 20 uM after 72 hrs by Western blot analysis. Format: cell-based. In general terms: A western blot detects proteins with antibodies after separation by electrophoresis.
Sequence of Protein-tyrosine kinase 6 (Homo sapiens) (Q13882 whole entry, looked up): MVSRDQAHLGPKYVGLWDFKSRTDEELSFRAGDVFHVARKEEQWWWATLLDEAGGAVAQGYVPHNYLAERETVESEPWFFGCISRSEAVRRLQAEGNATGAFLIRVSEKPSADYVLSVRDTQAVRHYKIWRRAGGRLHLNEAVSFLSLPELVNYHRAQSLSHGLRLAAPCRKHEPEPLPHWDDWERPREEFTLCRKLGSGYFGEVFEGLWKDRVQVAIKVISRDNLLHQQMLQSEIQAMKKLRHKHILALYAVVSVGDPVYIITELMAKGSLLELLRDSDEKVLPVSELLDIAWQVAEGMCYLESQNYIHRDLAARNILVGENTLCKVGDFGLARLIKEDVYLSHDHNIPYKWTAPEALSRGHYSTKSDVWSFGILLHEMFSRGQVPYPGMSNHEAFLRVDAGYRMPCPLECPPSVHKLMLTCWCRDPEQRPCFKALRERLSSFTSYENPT

Activity calls are given as the source filed them. The rule behind the calls is not given here.

Turning to `CC1=CC[C@H]2[C@H](CC[C@]2(C)O)C(C)(C)[C@@H]1CC[C@H]1[C@]2(C)CC[C@H](OC(=O)c3ccccc3[N+](=O)[O-])C(C)(C)O[C@H]2CC[C@@]1(C)O`, the Activity result in data set [1] and in data set [3] was “Non-toxic” each time. Further, the IC50 with MDA-MB-231 [2] was 18.6 µM; with MDA-MB-231 [2] (read-out: pIC50 (converted)) it was 18.6 µM; in the data set with MCF7, 5.2 µM; with MDA-MB-231 [4], 38.7 µM.
In the case of `CC1=CC[C@H]2[C@H](CC[C@]2(C)O)C(C)(C)[C@@H]1CC[C@H]1[C@]2(C)CC[C@H](OC(=O)c3ccc(Cl)c(Cl)c3)C(C)(C)O[C@H]2CC[C@@]1(C)O`, the Activity result in data set [1] and in data set [3] was “Non-toxic” in each case. The IC50 with MDA-MB-231 [2] was 1.3 µM; in the data set on MDA-MB-231 [2] (read-out: pIC50 (converted)), 1.3 µM; in the data set on MCF7, 11.9 µM; in the data set with MDA-MB-231 [4], 8.1 µM.
Take `CC1=CC[C@H]2[C@H](CC[C@]2(C)O)C(C)(C)[C@@H]1CC[C@H]1[C@]2(C)CC[C@H](OC(=O)c3ccccc3)C(C)(C)O[C@H]2CC[C@@]1(C)O`: the IC50 is 7.9 µM in the data set on MDA-MB-231 [2], 7.91 µM with MDA-MB-231 [2] (read-out: pIC50 (converted)), 21 µM with MCF7 and 16.1 µM in the data set on MDA-MB-231 [4]. Also, the inhibition entry in data set [5] was “Active”.
Consider `CC1=CC[C@H]2[C@H](CC[C@]2(C)O)C(C)(C)[C@@H]1CC[C@H]1[C@]2(C)CC[C@H](OC(=O)c3ccc(C(F)(F)F)cc3F)C(C)(C)O[C@H]2CC[C@@]1(C)O`, for which the Activity result in data set [1] and in data set [3] was “Non-toxic” in each case. In addition, the IC50 in the data set on MDA-MB-231 [2] is 26.4 µM; in the data set with MDA-MB-231 [2] (read-out: pIC50 (converted)), 26.4 µM; in the data set on MCF7 it was greater than 50 µM; with MDA-MB-231 [4], 36.3 µM.
On to `CC1=CC[C@H]2[C@H](CC[C@]2(C)O)C(C)(C)[C@@H]1CC[C@H]1[C@]2(C)CC[C@H](OC(=O)c3cccc(C(F)(F)F)c3)C(C)(C)O[C@H]2CC[C@@]1(C)O`, for which the Activity result in data set [1] and in data set [3] was “Non-toxic” throughout. In addition, the IC50 in the data set with MDA-MB-231 [2] is 6.1 µM; in the data set on MDA-MB-231 [2] (read-out: pIC50 (converted)), 6.1 µM; in the data set on MCF7 it was 37.9 µM; in the data set with MDA-MB-231 [4] it was 36.3 µM.
As to `COc1ccc(C(=O)O[C@H]2CC[C@]3(C)[C@H](CC[C@@](C)(O)[C@H]3CC[C@@H]3C(C)=CC[C@H]4[C@H](CC[C@]4(C)O)C3(C)C)OC2(C)C)cc1`, the Activity result in data set [1] and in data set [3] was “Non-toxic” throughout. For the same molecule, the IC50 with MDA-MB-231 [2] is 17.9 µM; in the data set with MDA-MB-231 [2] (read-out: pIC50 (converted)), 17.9 µM; with MCF7, 41.7 µM; in the data set on MDA-MB-231 [4], 30.6 µM.
Turning to `CC1=CC[C@H]2[C@H](CC[C@]2(C)O)C(C)(C)[C@@H]1CC[C@H]1[C@]2(C)CC[C@H](OC(=O)c3ccco3)C(C)(C)O[C@H]2CC[C@@]1(C)O`, the Activity result in data set [1] and in data set [3] was “Non-toxic” throughout. In addition, the IC50 in the data set on MDA-MB-231 [2] was 9.3 µM; in the data set with MDA-MB-231 [2] (read-out: pIC50 (converted)), 9.29 µM; in the data set with MCF7 it was 25.7 µM; with MDA-MB-231 [4], 14 µM.
Regarding `CC1=CC[C@H]2[C@H](CC[C@]2(C)O)C(C)(C)[C@@H]1CC[C@H]1[C@]2(C)CC[C@H](OC(=O)c3ccc([N+](=O)[O-])o3)C(C)(C)O[C@H]2CC[C@@]1(C)O`, the Activity result in data set [1] and in data set [3] was “Non-toxic” throughout. The IC50 in the data set on MDA-MB-231 [2] is 3.5 µM; in the data set on MDA-MB-231 [2] (read-out: pIC50 (converted)), 3.48 µM; in the data set with MCF7 it was 21.3 µM; in the data set on MDA-MB-231 [4], 11.1 µM.
Turning to `CC1=CC[C@H]2[C@H](CC[C@]2(C)O)C(C)(C)[C@@H]1CC[C@H]1[C@]2(C)CC[C@H](OC(=O)c3ccccc3C(F)(F)F)C(C)(C)O[C@H]2CC[C@@]1(C)O`, the Activity result in data set [1] and in data set [3] was “Non-toxic” throughout. Further, the IC50 is 34.5 µM in the data set on MDA-MB-231 [2], 34.5 µM in the data set on MDA-MB-231 [2] (read-out: pIC50 (converted)), 19.2 µM in the data set on MCF7 and 31.5 µM in the data set with MDA-MB-231 [4].
Turning to `CC1=CC[C@H]2[C@H](CC[C@]2(C)O)C(C)(C)[C@@H]1CC[C@H]1[C@]2(C)CC[C@H](OC(=O)c3ccc(F)cc3)C(C)(C)O[C@H]2CC[C@@]1(C)O`, the Activity result in data set [1] and in data set [3] was “Non-toxic” in each case. Also, the IC50 with MDA-MB-231 [2] was 2.4 µM; with MDA-MB-231 [2] (read-out: pIC50 (converted)), 2.4 µM; in the data set with MCF7, 33.5 µM; with MDA-MB-231 [4] it was 11.3 µM.
With `CC1=CC[C@H]2[C@H](CC[C@]2(C)O)C(C)(C)[C@@H]1CC[C@H]1[C@]2(C)CC[C@H](OC(=O)c3cccc([N+](=O)[O-])c3)C(C)(C)O[C@H]2CC[C@@]1(C)O`, the Activity result in data set [1] and in data set [3] was “Non-toxic” in each case. For the same molecule, the IC50 was 5.9 µM with MDA-MB-231 [2], 5.9 µM in the data set with MDA-MB-231 [2] (read-out: pIC50 (converted)), 36 µM with MCF7 and 34.7 µM with MDA-MB-231 [4].
With `CC1=CC[C@H]2[C@H](CC[C@]2(C)O)C(C)(C)[C@@H]1CC[C@H]1[C@]2(C)CC[C@H](OC(=O)c3ccccc3F)C(C)(C)O[C@H]2CC[C@@]1(C)O`, the Activity entry in data set [1] and in data set [3] was “Non-toxic” each time. Further, the IC50 in the data set on MDA-MB-231 [2] was 22.7 µM; with MDA-MB-231 [2] (read-out: pIC50 (converted)), 22.7 µM; in the data set with MCF7, 11.3 µM; with MDA-MB-231 [4] it was 28.7 µM.
As for `CC1=CC[C@H]2[C@H](CC[C@]2(C)O)C(C)(C)[C@@H]1CC[C@H]1[C@]2(C)CC[C@H](OC(=O)c3ccc([N+](=O)[O-])cc3)C(C)(C)O[C@H]2CC[C@@]1(C)O`, the Activity result in data set [1] and in data set [3] was “Non-toxic” throughout. For the same molecule, the IC50 was 3.4 µM with MDA-MB-231 [2], 3.35 µM in the data set with MDA-MB-231 [2] (read-out: pIC50 (converted)), 21.6 µM with MCF7 and 8.9 µM in the data set with MDA-MB-231 [4].
Regarding `CC1=CC[C@H]2[C@H](CC[C@]2(C)O)C(C)(C)[C@@H]1CC[C@H]1[C@]2(C)CC[C@H](OC(=O)c3ccc(C(F)(F)F)c(F)c3)C(C)(C)O[C@H]2CC[C@@]1(C)O`, the Activity entry in data set [1] and in data set [3] was “Non-toxic” in each case. Moreover, the IC50 in the data set with MDA-MB-231 [2] is 11.9 µM; with MDA-MB-231 [2] (read-out: pIC50 (converted)) it was 11.9 µM; in the data set with MCF7, greater than 50 µM; in the data set on MDA-MB-231 [4], 22.2 µM.
`CC1=CC[C@H]2[C@H](CC[C@]2(C)O)C(C)(C)[C@@H]1CC[C@H]1[C@]2(C)CC[C@H](OC(=O)c3ccccc3Cl)C(C)(C)O[C@H]2CC[C@@]1(C)O`: the Activity result in data set [1] and in data set [3] was “Non-toxic” throughout. Moreover, the results for the IC50 in the data set on MDA-MB-231 [2], with MCF7 and in the data set with MDA-MB-231 [4] were 6.1 µM, 12.1 µM and 24.3 µM, respectively.
For `CC1=CC[C@H]2[C@H](CC[C@]2(C)O)C(C)(C)[C@@H]1CC[C@H]1[C@]2(C)CC[C@H](OC(=O)c3ccc(C(F)(F)F)cc3)C(C)(C)O[C@H]2CC[C@@]1(C)O`, the Activity entry in data set [1] and in data set [3] was “Non-toxic” each time. Further, the IC50 with MDA-MB-231 [2] is 7.8 µM; in the data set with MDA-MB-231 [2] (read-out: pIC50 (converted)) it was 7.8 µM; in the data set on MCF7 it was 23.4 µM; with MDA-MB-231 [4], 19.5 µM.

Values taken from ChEMBL document CHEMBL3112510, “Optimization, pharmacophore modeling and 3D-QSAR studies of sipholanes as breast cancer migration and proliferation inhibitors” (Eur J Med Chem, 2014).
